Results on two compounds are retold here after patent publication US7196088B2, “Substituted tetrahydroisoquinolines and uses thereof” (Roche Palo Alto LLC, priority 2003, dated 2007).

Molecules are shown by their SMILES. Counter-ions that a name gives are not always drawn.

Data set [1] deals with recombinant human 5-HT6 receptor (Homo sapiens, UniProt P50406). The data set can be described thus: Radioligand binding studies: competition for [3H]LSD binding in membranes of HEK293 cells expressing the receptor.
recombinant human 5-HT6 receptor, sequence (P50406 whole entry): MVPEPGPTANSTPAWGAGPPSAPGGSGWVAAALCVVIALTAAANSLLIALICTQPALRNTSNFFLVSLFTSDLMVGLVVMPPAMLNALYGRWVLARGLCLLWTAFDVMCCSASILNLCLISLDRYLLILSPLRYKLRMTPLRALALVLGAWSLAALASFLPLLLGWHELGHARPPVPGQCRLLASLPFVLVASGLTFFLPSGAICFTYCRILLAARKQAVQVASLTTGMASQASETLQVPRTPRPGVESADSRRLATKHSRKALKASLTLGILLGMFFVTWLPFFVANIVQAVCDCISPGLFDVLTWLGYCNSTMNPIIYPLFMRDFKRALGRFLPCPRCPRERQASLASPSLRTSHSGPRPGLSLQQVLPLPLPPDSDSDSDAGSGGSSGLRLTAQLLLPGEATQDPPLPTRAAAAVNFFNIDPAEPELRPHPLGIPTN

`O=S(=O)(c1cccc(Cl)c1Cl)N1CCc2c(cccc2N2CCNCC2)C1` [Compound 16, 2-(2,3-Dichloro-benzenesulfonyl)-5-pipe-razin-1-yl-1,2,3,4-tetra-hydroisoquinoline]: the Ki (commonly a dissociation constant, usually derived from enzyme kinetics or from competition with a known ligand) in data set [1] was 0.0427 nM.

In the case of `O=S(=O)(c1ccccc1)N1CCc2c(cccc2N2CCNCC2)C1` (as salt: trifluoroacetic acid salt), the melting point (as a rule, the temperature of the solid-liquid transition) lay within 214 to 216 °C.
